Source: patent US7691825B2, “Adenosine A2B receptor agonists” (King Pharmaceuticals Research and Development, Inc., priority 2006, dated 2010)
Read-outs that look alike come from different tables or passages of the source.

Legend:
[1] = biological target: T1, hA2A receptors expressed in CHO cells (Homo sapiens, UniProt P29274); assay: [3H]CGS21680 binding hA2A CHO cells; details: [3H]-CGS 21680, hA2A CHO cell membranes, 180 min at 25° C.; mean ± s.e. mean
T1 construct: expressed in transfected cells; host or cells: CHO cells (stably transfected, per Klotz et al. 1998); membrane preparation
Protocol: (§2) The cells are grown adherently and maintained in Dulbecco's Modified Eagles Medium with nutrient mixture F12 (DMEM/F12) without nucleosides, containing 10% fetal calf serum, penicillin (100 U/mL), streptomycin (100 μg/mL), L-glutamine (2 mM) and Geneticin (G418, 0.2 mg/mL) at 37° C. in 5% CO2/95% air. […] For membrane preparation the culture medium is removed and the cells are washed with PBS and scraped off T75 flasks in ice-cold hypotonic buffer (5 mM Tris HCl, 2 mM EDTA, pH 7.4). The cell suspension is homogenized and centrifuged for 30 min at 100,000×g. The membrane pellet is re-suspended in 50 mM Tris HCl buffer pH 7.4 and incubated with 2 UI/mL of adenosine deaminase for 30 min at 37° C.
(§3) Binding of 1 nM [^3H]—CHA to hA1CHO cells (50 μg of protein/assay) is performed using 50 mM Tris HCl buffer pH 7.4 and at least 6-8 different concentrations of agonists studied for an incubation time of 150 min at 25° C. […] Non-specific binding is determined in the presence of 10 μM of CHA and is about 20% of the total binding. […] Filter bound radioactivity is measured by scintillation spectrometry after addition of 5 mL of Aquassure.
(§4) All experimental data are expressed as the mean±standard error of the mean (s.e. mean) of three or four independent experiments performed in duplicate.

[2] = biological target: T2, hA2B receptors expressed in CHO cells (Homo sapiens, UniProt P29275); assay: cAMP assay hA2B CHO cells; assay type: cell-based; details: for Selectivity hA1/hA2B: ratio hA1 Ki / hA2B EC50; for Selectivity hA2A/hA2B: ratio hA2A Ki / hA2B EC50; for Selectivity hA3/hA2B: ratio hA3 IC50 / hA2B EC50; for EC50: stimulation of cAMP levels, hA2B CHO cells, mean ± s.e. mean
T2 construct: expressed in transfected cells; host or cells: CHO cells
T2 sequence (P29275 1-332): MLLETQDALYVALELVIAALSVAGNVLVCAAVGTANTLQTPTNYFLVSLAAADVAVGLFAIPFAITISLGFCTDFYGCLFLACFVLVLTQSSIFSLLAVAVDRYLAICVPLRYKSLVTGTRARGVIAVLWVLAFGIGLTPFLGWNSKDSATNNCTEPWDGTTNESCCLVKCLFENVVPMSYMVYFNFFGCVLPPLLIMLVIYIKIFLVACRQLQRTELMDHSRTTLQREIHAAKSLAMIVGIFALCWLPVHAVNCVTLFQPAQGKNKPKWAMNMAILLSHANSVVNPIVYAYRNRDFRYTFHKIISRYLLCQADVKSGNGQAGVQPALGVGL
Protocol: The effects of the tested compounds may be evaluated in functional assays measuring the stimulatory capability of the ligands to increase cAMP levels in hA2B receptors expressed in CHO cells. This may done as described by Pastorin et al. in “Pyrazolo[4,3-e]-1,2,4-triazolo[1,5-c]pyrimidine derivatives as adenosine receptor antagonists.
(§1) For cell preparation CHO cells transfected with human A2B or A3 receptors are washed with phosphate-buffered saline and diluted trypsin, and centrifuged for 10 min at 200 g. […] After the preincubation time at 37° C., the examined ligands (1 nM-10 μM) are added to the mixture and incubated for a further 5 min. The reaction is terminated by the addition of cold 6% trichloroacetic acid (TCA). The TCA suspension is centrifuged at 2000 g for 10 min at 4° C. and the supernatant is extracted four times with water saturated diethyl ether. […] Samples of cyclic AMP standard (0-10 pmoles) are added to each test tube containing the incubation buffer (trizma base 0.1 mM, aminophylline 8.0 mM, 2-mercaptoethanol 6.0 mM, pH 7.4) and [^3H]cyclic AMP in total volume of 0.5 mL. The binding protein previously incubated at 4° C. for 150 min, and after the addition of charcoal is centrifuged at 2000 g for 10 min. The clear supernatant is counted in a Beckman scintillation counter.

[3] = biological target: T3, human A3 receptors in CHO cells (Homo sapiens, UniProt P0DMS8); assay: cAMP assay hA3 CHO cells; assay type: cell-based; details: cyclic AMP assay, mean ± s.e. mean
T3 construct: expressed in transfected cells; host or cells: CHO cells
T3 sequence (P0DMS8 1-318): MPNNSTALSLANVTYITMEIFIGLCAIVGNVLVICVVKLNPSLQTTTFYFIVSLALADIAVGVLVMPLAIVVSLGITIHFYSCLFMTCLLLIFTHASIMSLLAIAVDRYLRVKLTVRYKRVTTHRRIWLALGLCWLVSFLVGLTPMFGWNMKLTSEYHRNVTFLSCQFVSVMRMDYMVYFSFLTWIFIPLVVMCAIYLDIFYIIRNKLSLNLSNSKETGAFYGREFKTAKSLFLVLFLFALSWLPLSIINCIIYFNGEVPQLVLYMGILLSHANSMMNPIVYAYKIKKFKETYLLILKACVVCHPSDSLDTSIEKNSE
Protocol: as §1

[4] = biological target: T4, hA1 receptors expressed in CHO cells (Homo sapiens, UniProt P30542); assay: [3H]CHA binding hA1 CHO cells
T4 sequence (P30542 1-326): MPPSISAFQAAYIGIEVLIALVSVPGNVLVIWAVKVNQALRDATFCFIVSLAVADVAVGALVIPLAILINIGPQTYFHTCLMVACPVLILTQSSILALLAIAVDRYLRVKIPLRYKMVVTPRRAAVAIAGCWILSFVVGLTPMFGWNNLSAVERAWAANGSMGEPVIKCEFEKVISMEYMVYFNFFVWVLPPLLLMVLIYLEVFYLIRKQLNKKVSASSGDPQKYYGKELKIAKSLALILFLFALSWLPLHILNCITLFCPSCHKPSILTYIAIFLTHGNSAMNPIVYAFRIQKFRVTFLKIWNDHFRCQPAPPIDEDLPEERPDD
Protocol: as §2, §3, §4

[5] = read-out: [3H]CHA binding hA1 CHO cells Ki, 1 nM [3H]-CHA, hA1 CHO cell membranes, 150 min at 25° C., mean ± s.e. mean

T1 sequence (P29274 whole entry): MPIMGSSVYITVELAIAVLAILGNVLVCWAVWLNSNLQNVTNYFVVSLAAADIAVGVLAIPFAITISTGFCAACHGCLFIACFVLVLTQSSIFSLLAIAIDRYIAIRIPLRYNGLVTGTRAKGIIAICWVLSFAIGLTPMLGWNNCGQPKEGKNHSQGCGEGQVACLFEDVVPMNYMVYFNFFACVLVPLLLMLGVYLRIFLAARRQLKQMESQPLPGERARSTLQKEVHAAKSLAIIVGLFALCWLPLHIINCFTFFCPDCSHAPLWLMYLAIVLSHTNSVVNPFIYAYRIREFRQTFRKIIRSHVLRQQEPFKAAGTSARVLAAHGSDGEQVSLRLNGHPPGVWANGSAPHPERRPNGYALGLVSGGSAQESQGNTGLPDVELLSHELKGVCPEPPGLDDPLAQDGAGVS

SMILES	Ki [1]	Selectivity hA1/hA2B [2]	Selectivity hA2A/hA2B [2]	Selectivity hA3/hA2B [2]	EC50 [2]	IC50 [3]	melting point	Ki [4, 5]	Ki [4]
CCNC(=O)[C@H]1O[C@@H](n2cnc3c(NNC(=O)c4cc(C)on4)nc(Cl)nc32)[C@H](O)[C@@H]1O [Compound 25b, (2S, 3S, 4R, 5R)-5-{2-Chloro-6-[N′-(5-methyl-isoxazole-3-carbonyl)-hydrazino]-9H-purin-9-yl}-3,4-dihydroxy-tetrahydrofuran-2-carboxylic acid ethylamide]	> 1000 nM				> 1000 nM	> 1000 nM	182 to 183 °C		> 1000 nM
CCNC(=O)[C@H]1O[C@@H](n2cnc3c(NNC(=O)c4cc(-c5ccccc5)on4)nc(Cl)nc32)[C@H](O)[C@@H]1O [Compound 26b, (2S, 3S, 4R, 5R)-5-{2-Chloro-6-[N′-(5-phenyl-isoxazole-3-carbonyl)-hydrazino]-9H-purin-9-yl}-3,4-dihydroxy-tetrahydrofuran-2-carboxylic acid ethylamide]	> 1000 nM				> 1000 nM	> 1000 nM	169 to 170 °C		> 1000 nM

Other lines, results leading:

Ki [1]	Selectivity hA1/hA2B [2]	Selectivity hA2A/hA2B [2]	Selectivity hA3/hA2B [2]	EC50 [2]	IC50 [3]	melting point	Ki [4, 5]	Ki [4]	SMILES
> 1000 nM	3.68	>5.00	>5.00	200 ± 20 nM	> 1000 nM	189 to 190 °C	737 ± 76 nM		CCNC(=O)[C@H]1O[C@@H](n2cnc3c(NNC(=O)c4cccs4)nc(Cl)nc32)[C@H](O)[C@@H]1O [Compound 22b, (2S, 3S, 4R, 5R)-5-{2-Chloro-6-[N′-(thiophene-2-carbonyl)-hydrazino]-9H-purin-9-yl}3,4-dihydroxy-tetrahydrofuran-2-carboxylic acid ethylamide]
> 1000 nM	>2.94	>2.94	>2.94	340 ± 35 nM	> 1000 nM	160 to 161 °C		> 1000 nM	CCNC(=O)[C@H]1O[C@@H](n2cnc3c(NNC(=O)c4sccc4C)nc(Cl)nc32)[C@H](O)[C@@H]1O [Compound 23b]
> 1000 nM	1.70	>2.78	>2.78	359 ± 36 nM	> 1000 nM	230 to 231 °C	610 ± 32 nM		CCNC(=O)[C@H]1O[C@@H](n2cnc3c(NNC(=O)c4ccc[nH]4)nc(Cl)nc32)[C@H](O)[C@@H]1O [Compound 24b, (2S, 3S, 4R, 5R)-5-{2-Chloro-6-[N′-(1H-pyrrole-2-carbonyl)-hydrazino]-9H-purin-9-yl}-3,4-dihydroxy-tetrahydrofuran-2-carboxylic acid ethylamide]
